Assay results reported in ChEMBL document CHEMBL1201862, “PubChem BioAssay data set” (2004).
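Test compounds were applied to cells in 96-well plates for 48 hours at 5 doses. GI50 = concentration required for 50% inhibition of growth.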 Activity calls are given as the source filed them. Cut-off read from the data, not from the text of the source: active = GI50 up to about 1.1 µM and inactive = higher.

What was measured:
Assay in all cases: DTP human tumour cell line panel, 48 h
DMS-273 = tested on: DMS-273
KM-20L2 = tested on: KM-20L2
LXFL 529 = tested on: LXFL 529
RXF 631 = tested on: RXF 631
SNB-78 = tested on: SNB-78
XF498 = tested on: XF498
HOP-18 = tested on: HOP-18
BT-549 = tested on: BT-549
T47D = tested on: T47D

Measured: GI50

COc1ccc2cc3[n+](cc2c1OC)CCc1cc(O)c(O)cc1-3
inactive: DMS-273 > 100 µM | KM-20L2 > 100 µM | LXFL 529 > 100 µM | RXF 631 > 100 µM | SNB-78 > 100 µM | XF498 > 100 µM

N#C/C(=C\c1cccc(Cl)c1Cl)c1ccccc1
inactive: DMS-273 21 µM | HOP-18 52.2 µM | KM-20L2 > 100 µM | LXFL 529 54 µM | RXF 631 50 µM | SNB-78 50.2 µM | XF498 > 42.3 µM

CCc1cccc(C(C)C)c1NC(=O)C(=O)C(C(=O)C(=O)OC)c1nc2ccccc2nc1O (centres undefined)
inactive: DMS-273 > 100 µM | HOP-18 > 100 µM | KM-20L2 > 100 µM | LXFL 529 > 100 µM | RXF 631 > 100 µM | SNB-78 > 100 µM | XF498 > 100 µM

COC(=O)/C(=C/c1ccc(OC)cc1)C(C(=O)O)=C1CCCC1
inactive: DMS-273 > 100 µM | KM-20L2 > 100 µM | LXFL 529 > 100 µM | RXF 631 > 100 µM | SNB-78 > 100 µM | XF498 11.7 µM

COc1ccccc1NC(=O)CC(=O)n1nc(C)c(/N=N/c2ccccc2Cl)c1C
inactive: BT-549 > 81.7 µM | DMS-273 > 100 µM | HOP-18 > 100 µM | KM-20L2 > 100 µM | LXFL 529 > 100 µM | RXF 631 > 31.6 µM | SNB-78 5.12 µM | T47D > 100 µM | XF498 > 100 µM

CCOc1ccc(NC(=O)CC#N)cc1
inactive: DMS-273 > 100 µM | HOP-18 > 100 µM | KM-20L2 > 100 µM | LXFL 529 > 100 µM | RXF 631 > 100 µM | SNB-78 > 100 µM | XF498 > 100 µM

C/N=C(\N=c1/ss/c(=N\C)n1C)N(C)C.[O-][Cl+3]([O-])([O-])O
inactive: DMS-273 37.8 µM | HOP-18 23.9 µM | KM-20L2 > 100 µM | LXFL 529 > 100 µM | RXF 631 > 100 µM | XF498 > 100 µM

CCCCCCCCCCCCCCCCCCN(C)C(COC)COP(=O)([O-])OCC[N+](C)(C)C (centres undefined)
inactive: BT-549 9.18 µM | DMS-273 1.38 µM | HOP-18 6.08 µM | KM-20L2 2.08 µM | LXFL 529 4.26 µM | RXF 631 6.85 µM | SNB-78 4.5 µM | T47D 18.4 µM | XF498 18.6 µM

CCOc1ccccc1NC(=O)C(=O)Cc1nc2ccccc2s1
inactive: DMS-273 > 100 µM | HOP-18 > 100 µM | KM-20L2 > 100 µM | LXFL 529 > 100 µM | RXF 631 > 100 µM | SNB-78 > 100 µM | XF498 > 100 µM

O=C1/C(=C/c2cc(O)c(O)c(O)c2)Oc2cc(O)cc(OC3OC(CO)C(O)C(O)C3O)c21 (centres undefined)
inactive: DMS-273 1.85 µM | HOP-18 53.5 µM | KM-20L2 21.2 µM | LXFL 529 14.6 µM | RXF 631 1.81 µM | SNB-78 19.4 µM

COC(=O)C(CCS(=O)(=O)CC(=O)C(=O)Nc1cccc(C(C)=O)c1)C(=O)OC
inactive: DMS-273 > 100 µM | HOP-18 > 100 µM | KM-20L2 > 100 µM | LXFL 529 > 100 µM | RXF 631 > 100 µM | SNB-78 > 100 µM | XF498 > 100 µM

O=C(CC1(O)C(=O)Nc2ccc(Br)cc21)c1ccc(Cl)cc1 (centres undefined)
inactive: HOP-18 72.4 µM | KM-20L2 > 100 µM | LXFL 529 > 100 µM | RXF 631 31.5 µM | SNB-78 83.8 µM

Cc1cccc(C)c1NC(=O)/C(=N/NC(N)=S)C(C)C(=O)c1ccc(Cl)cc1 (centres undefined)
inactive: DMS-273 > 100 µM | HOP-18 > 100 µM | KM-20L2 > 100 µM | LXFL 529 > 100 µM | RXF 631 > 100 µM | SNB-78 > 100 µM | XF498 > 100 µM

CCOC(=O)C1(C/C=C(/C)Cl)CCCC1=O (centres undefined)
inactive: DMS-273 23 µM | HOP-18 > 100 µM | KM-20L2 47.6 µM | LXFL 529 > 100 µM | RXF 631 95.1 µM | XF498 > 100 µM

CC1CC(C2=CC=CCS2)=Nc2ccccc2S1 (centres undefined)
inactive: DMS-273 > 100 µM | HOP-18 > 100 µM | KM-20L2 > 100 µM | LXFL 529 > 100 µM | RXF 631 > 100 µM | SNB-78 > 100 µM | XF498 > 100 µM

COc1cc2c(cc1OC)C1C=NC(C(=O)O)(C2)c2ccccc21 (centres undefined)
inactive: DMS-273 > 100 µM | KM-20L2 > 100 µM | LXFL 529 > 100 µM | RXF 631 > 100 µM | SNB-78 > 100 µM

NC1=NN(c2ccccc2)C(=O)C1/C(=N\NC(=O)c1cc2ccccc2cc1O)C(=O)Nc1nc([N+](=O)[O-])cs1 (centres undefined)
inactive: DMS-273 > 45.2 µM | HOP-18 40 µM | KM-20L2 40.9 µM | LXFL 529 34.8 µM | RXF 631 22.7 µM | SNB-78 > 100 µM | XF498 36.6 µM
